# Source: patent publication US8202835B2, “Disease treatment via antimicrobial peptides or their inhibitors” (priority 2005, dated 2012)
# “Also recorded” adds a separate entry of the source. No end group written: not given here.
# B1: Alpha-Defensin 5: antimicrobial peptide reported in the DSS colitis model (peptide, UniProt Q01523 20-94, looked up)
# Defensin alpha 5: ESLQERADEATTQKQSGEDNQDLAISFAGNGLSALRTSGSQARATCYCRTGRCATRESLSGVCEISGRLYRLCCR
# modifications: Defensin-5
# notes: antimicrobial peptide reported in the DSS colitis model
# How the values were obtained:
# BALB/C mice = assay: DSS induced acute colitis model of IBD, disease activity index (DAI); type: in vivo, mouse; conditions: DSS treated control group average DAI 3; score 0 to 4
# Method: BALB/C mice were induced with acute colitis by feeding dextran sulfate sodium (DSS) in drinking water for one week and synthetic cathelicidin was administered intrarectally daily during colitis induction.
# Mice were induced with acute colitis by being given 3% DSS (molecular weight, 36-50 kDa) according to the method described by Liu et al. (Carcinogenesis 24:1407-1413, 2003). The 3% DSS was given in their drinking water liar 7 days (from Day 0 to Day 7). Normal control mice received tap water throughout the experiment.
# Intrarectal administration of AMPs Cathelicidin mCRAMP (5 mg/Kg/day), beta-Defensin 1 (1 mg/Kg/day), beta-Defensin 3 (1 mg/Kg/day), Elafin and SLPI, CCL20 (1 mg/Kg/day), lysozyme (3 mg/Kg/day)), as well as bactericidal/permeability increasing protein (1 mg/Kg/day). The mice were divided into two groups of 10, one receiving ordinary tap water and the disease group with DSS treatment. The peptides were intrarectally administrated once daily for 10 consecutive days beginning 3 dayd before DSS treatment. The PBS control mice received equal volumes of PBS (i.e., 100 ul) intrarectally.
# In all tested animals, body weight, stool consistency, and presence of gross bleeding were recorded. Disease activity index (DAI) was calculated according to the method described by Cooper et al. (Lab Invest 69:238-249, 1993.). In brief, body weight loss, stool consistency, and bleeding were scored from 0 to 4, and DAI is the combined score divided by 3.
# In addition, a parallel experiment using mCRAMP (0.8 mg/Kg) administered by injection into the peritoneum 3 times a week beginning at one week before DSS treatment. In this experiment, two groups of mice (10 in each) were compared were the control group received saline during DSS treatment while the treatment group received mCRAMP (0.8 mg/Kg) intraperitonculy 3 times a week.
# AMPs were applied both individually or together in combination.
# [1] = Infection and immunity, November 1999, p. 6084-6089; cited from earlier work
# human psoriatic skin = assay: Human in-vivo psoriatic lesion treatment; conditions: blind trial; for skin psoriatic lesion, 5 days treatment: Cathelicidin 10 ug/ml applied to lesions in a human subject
# Method: Human in-vivo psoriatic lesion treatment: Cathelicidin 10 ug/ml or human beta defensin-2 diluted in PBS containing 0.1% BSA, or buffer carrier was applied to lesions in a human subject in a blind trial.
# BETATC beta cell line = assay: Thymidine incorporation cell proliferation assay; type: cell-based, mouse; conditions: LL-37 2 microgram/ml, 3.5 days, vs PBS control
# Method: Murine beta cell line were treated for 3.5 days with LL-37 at 2 microgram/ml (red/dark bars) and compared to PBS control ([…]). Cell proliferation was estimated by measuring [3(H)]-thymidine incorporation and was expressed as percent of control untreated cells. A representative experiment is shown.
# Antimicrobial peptides (AMPs): The antimicrobial peptides human cathelicidin LL-37: […] (SEQ ID NO: 14) was obtained from AnaSpec, USA (Catalogue numbers: 61302). Cathelicidin at 2 ug/ml was added to the plate and compared with control.
# Thymidine incorporation cell proliferation assay: Cell proliferation was evaluated by measuring [3(H)]-thymidine incorporation into DNA. Cells were pulsed with [3(H)]-thymidine (1 microcurie/mL, ICN, Irvine, Calif.) for 1 hour, at 37 degrees centigrade. After incubation, cells were washed 3 times with PBS, incubated for 15 minutes at room temperature in 5% trichloroacetic acid and solubilized in 1% triton X-100. The radioactivity incorporated into the cells was counted in the [3(H)]-window of a Tricarb liquid scintillation counter. Mean values were determined from measurements of triplicate samples under each experimental condition for each experiment. Thymidine incorporation was determined as number of disintegrations per minute (DPM) per mg of protein.
Molecule,average DAI (disease activity index) (BALB/C mice),"skin psoriatic lesion, 5 days treatment (human psoriatic skin)",also measured
"Alpha-Defensin 6: antimicrobial peptide reported in the DSS colitis model (AFTCHCRRSCYSTEYSYGTCTVMGINHRFCCL; ends and bridges not checked; cysteine pairing not given here; UniProt Q01524 69-100, looked up)",1.8,,
LLGDFFRKSKEKIGKEFKRIVQRIKDFLRNLVPRTES [LL-37],,slight improvement,half-life in blood of humans [1]: approximately 3.4 days; cell proliferation ([3(H)]-thymidine incorporation) (BETATC beta cell line): significant BETATC beta cell line proliferation; also recorded: slight increase in cell proliferation
"SKEKIGKEFKRIVQRIKDFLRNLVPRTES (listed as Homo sapiens) [SK29, fragment cathelicidin SK29]",,slight improvement,
"beta-Defensin 3: antimicrobial peptide tested in the DSS colitis model (GIINTLQKYYCRVRGGRCAVLSCLPKEEQIGKCSTRGRKCCRRKK; ends and bridges not checked; cysteine pairing not given here; UniProt P81534 23-67, looked up)",1.8,,
"human beta defensin-2: Human Beta-Defensin-2 peptide purchased from Sigma-Aldrich (GIGDPVTCLKSGAICHPVFCPRRYKQIGTCGLPGTKCCKKP; ends and bridges not checked; cysteine pairing not given here; UniProt O15263 24-64, looked up) [reference compound]",1.8,,"skin psoriatic lesion, seven week course of treatment (human psoriatic skin; applied to lesions in a human subject, FIG. 20): worsening of skin psoriatic legion"
B1,1.8,,
